# Source: EP0677522A1, “8-METHOXYQUINOLONECARBOXYLIC ACID DERIVATIVE” (priority 1992, dated 1994)
# Tests used:
# S. epidermidis SEY-223 = assay: In vitro antibacterial activity (MIC), Japan Society of Chemotherapy Standard; assay type: cell-based; conditions: Staphylococcus epidermidis, SEY223; quinolone resistant bacteria; inoculated cells 10⁶ cells/ml
# Protocol: (§1) The in vitro antibacterial activity (minimum inhibitory concentration, MIC, µg/ml) of the test compounds was determined according to Japan Society of Chemotherapy Standard [Chemotherapy, vol. 29, pp 76-79 (1981)].
# (§2) Inoculated cells were 10⁶ cells/ml and the strain with * was incubated in a medium supplemented with 10% horse blood. The mark "1)" means quinolone resistant MRSA and "2)" means quinolone resistant bacteria.
# [1] = test system: Escherichia coli NIHJ JC-2; assay: as above; assay type: cell-based; conditions: NIHJJC2, inoculated cells 10⁶ cells/ml
# Protocol: as §1, §2
# S. pneumoniae Type-III = assay: as above; assay type: cell-based; conditions: Streptococcus pneumoniae; inoculated cells 10⁶ cells/ml; medium supplemented with 10% horse blood
# Protocol: as §1, §2
# [2] = test system: Staphylococcus aureus FDA 209P; assay: as above; assay type: cell-based; conditions: FDA209P, inoculated cells 10⁶ cells/ml
# Protocol: as §1, §2
# [3] = test system: Serratia marcescens IFO 12648; assay: as above; assay type: cell-based; conditions: IFO12648, inoculated cells 10⁶ cells/ml
# Protocol: as §1, §2
# [4] = test system: Proteus vulgaris IFO 3988; assay: as above; assay type: cell-based; conditions: IFO3988, inoculated cells 10⁶ cells/ml
# Protocol: as §1, §2
# [5] = test system: A.calcoaceticus IFO 13006; assay: as above; assay type: cell-based; conditions: Acinetobacter calcoaceticus, IFO13006; inoculated cells 10⁶ cells/ml
# Protocol: as §1, §2
# [6] = test system: Corynebacterium diphtheriae Tronto; assay: as above; assay type: cell-based; conditions: inoculated cells 10⁶ cells/ml, medium supplemented with 10% horse blood
# Protocol: as §1, §2
# K.pneumoniae DT-S = assay: as above; assay type: cell-based; conditions: Klebsiella pneumoniae; inoculated cells 10⁶ cells/ml
# Protocol: as §1, §2
# [7] = test system: Pseudomonas aeruginosa IFO 12582; assay: as above; assay type: cell-based; conditions: IFO12582, inoculated cells 10⁶ cells/ml
# Protocol: as §1, §2
# [8] = test system: Acinetobacter calcoaceticus ATCC 13006; assay: as above; assay type: cell-based; conditions: ATCC13006, inoculated cells 10⁶ cells/ml
# Protocol: as §1, §2
# E. faecalis EFY-204 = assay: as above; assay type: cell-based; conditions: Enterococcus faecalis, EFY204; quinolone resistant bacteria; inoculated cells 10⁶ cells/ml
# Protocol: as §1, §2
# L.monocytogenes VTU-206 = assay: as above; assay type: cell-based; conditions: Listeria monocytogenes, VTU206; inoculated cells 10⁶ cells/ml; medium supplemented with 10% horse blood
# Protocol: as §1, §2
# S. viridans America = assay: as above; assay type: cell-based; conditions: Streptococcus viridans; inoculated cells 10⁶ cells/ml; medium supplemented with 10% horse blood
# Protocol: as §1, §2
# [9] = test system: Enterococcus faecalis LS-101; assay: as above; assay type: cell-based; conditions: LS101, inoculated cells 10⁶ cells/ml
# Protocol: as §1, §2
# S. aureus No.88 = assay: as above; assay type: cell-based; conditions: Staphylococcus aureus; quinolone resistant MRSA; inoculated cells 10⁶ cells/ml
# Protocol: as §1, §2
# Klebsiella pneumoniae DT = assay: as above; assay type: cell-based; conditions: inoculated cells 10⁶ cells/ml
# Protocol: as §1, §2
# E. faecium EFMY-28 = assay: as above; assay type: cell-based; conditions: Enterococcus faecium, EFMY28; inoculated cells 10⁶ cells/ml
# Protocol: as §1, §2
# [10] = test system: Streptococcus pyogenes C-203; assay: as above; assay type: cell-based; conditions: C203, inoculated cells 10⁶ cells/ml, medium supplemented with 10% horse blood
# Protocol: as §1, §2
# M.catarrhalis ATCC 25238 = assay: as above; assay type: cell-based; conditions: Moraxella catarrhalis, ATCC25238; inoculated cells 10⁶ cells/ml; medium supplemented with 10% horse blood
# Protocol: as §1, §2
# [11] = test system: S. epidermidis ATCC 12228; assay: as above; assay type: cell-based; conditions: Staphylococcus epidermidis, ATCC12228; inoculated cells 10⁶ cells/ml
# Protocol: as §1, §2
# E. faecium EFMY-207 = assay: as above; assay type: cell-based; conditions: Enterococcus faecium, EFMY207; quinolone resistant bacteria; inoculated cells 10⁶ cells/ml
# Protocol: as §1, §2
# Shigella flexneri EW-10 = assay: as above; assay type: cell-based; conditions: EW10, inoculated cells 10⁶ cells/ml
# Protocol: as §1, §2
# [12] = test system: Enterobacter cloacae IFO 12937; assay: as above; assay type: cell-based; conditions: IFO12937, inoculated cells 10⁶ cells/ml
# Protocol: as §1, §2
# P.aeruginosa U-31 = assay: as above; assay type: cell-based; conditions: Pseudomonas aeruginosa, U31; inoculated cells 10⁶ cells/ml
# Protocol: as §1, §2
# [13] = test system: Citrobacter freundii IFO 12681; assay: as above; assay type: cell-based; conditions: IFO12681, inoculated cells 10⁶ cells/ml
# Protocol: as §1, §2
# P. mirabilis IFO 3849 = assay: as above; assay type: cell-based; conditions: Proteus mirabilis, IFO3849; inoculated cells 10⁶ cells/ml
# Protocol: as §1, §2
# S. aureus MRSA Y-238 = assay: Protection of mice from experimental infection; assay type: in vivo; conditions: oral administration one hour after inoculation, survival ratio at 7 days
# Protocol: (§3) Experimental infection was caused by intraperitoneal inoculation of respective bacteria to male mice. One hour after the inoculation, a test compound was orally administered to the mice. The therapeutic effect of each test compound was evaluated by reference to the 50% effective dose (ED₅₀) which was based on the survival ratio at 7 days after the administration according to the probit method [Proc. Soc. Exp. Med., Vol. 57, p 261-264 (1944)]. The minimum inhibitory concentration (MIC) of the infectious bacteria used was also determined. […]
# E. coli KC-14 = assay: Protection of mice from experimental infection; assay type: in vivo; conditions: oral administration one hour after inoculation, survival ratio at 7 days
# Protocol: as §3
# S. aureus Smith = assay: Protection of mice from experimental infection; assay type: in vivo; conditions: male mice; intraperitoneal inoculation 2.8×10⁶ cells/mouse (123×LD₅₀); oral administration one hour after inoculation; survival ratio at 7 days, probit method
# Protocol: as §3
structure (smiles),measurement,setting,value
"CC1COc2c(N3CCN(C)CC3)c(F)cc3c(=O)c(C(=O)O)cn1c23 (centres unmarked) [Comp. Ex. 2, 9-fluoro-2,3-dihydro-3-methyl-10-(4-methyl-1-piperazinyl)-7-oxo-7H-pyrido [1. 2. 3-de) [1.4] benzoxazine-6-carboxylic acid, reference compound]",MIC,S. epidermidis SEY-223,> 100 µg/mL
same,MIC,[1],0.05 µg/mL
same,MIC,S. pneumoniae Type-III,0.78 µg/mL
same,MIC,[2],0.2 µg/mL
same,MIC,[3],0.2 µg/mL
same,MIC,[4],0.1 µg/mL
same,MIC,[5],0.2 µg/mL
same,MIC,[6],0.39 µg/mL
same,MIC,K.pneumoniae DT-S,0.05 µg/mL
same,MIC,[7],1.56 µg/mL
same,MIC,[8],0.2 µg/mL
same,MIC,E. faecalis EFY-204,50 µg/mL
same,MIC,L.monocytogenes VTU-206,3.13 µg/mL
same,MIC,S. viridans America,3.13 µg/mL
same,MIC,[9],0.39 µg/mL
same,MIC,S. aureus No.88,50 µg/mL
same,MIC,Klebsiella pneumoniae DT,0.1 µg/mL
same,MIC,E. faecium EFMY-28,3.13 µg/mL
same,MIC,[10],1.56 µg/mL
same,MIC,M.catarrhalis ATCC 25238,0.1 µg/mL
same,MIC,[11],0.2 µg/mL
same,MIC,E. faecium EFMY-207,100 µg/mL
same,MIC,Shigella flexneri EW-10,0.05 µg/mL
same,MIC,[12],0.39 µg/mL
same,MIC,P.aeruginosa U-31,1.56 µg/mL
same,MIC,[13],0.1 µg/mL
same,MIC,P. mirabilis IFO 3849,0.39 µg/mL
same,ED₅₀ (mg/mouse) (95% confidence limit),"S. aureus MRSA Y-238; Table 3-1: male mice, intraperitoneal inoculation 7.5×10⁶ cells/mouse (185×LD₅₀)",> 16 mg/mouse
same,ED₅₀ (mg/mouse) (95% confidence limit),"S. aureus MRSA Y-238; Table 3-2: male mice, intraperitoneal inoculation 7.5×10⁵ cells/mouse (185×LD₅₀)",> 16 mg/mouse
same,ED₅₀ (mg/mouse) (95% confidence limit),"E. coli KC-14; Table 3-1: male mice, intraperitoneal inoculation 5.0×10⁶ cells/mouse (744×LD₅₀)",0.012(0.009-0.018) mg/mouse
same,ED₅₀ (mg/mouse) (95% confidence limit),"E. coli KC-14; Table 3-2: male mice, intraperitoneal inoculation (744×LD₅₀)",0.012(0.009-0.018) mg/mouse
same,ED₅₀ (mg/mouse) (95% confidence limit),S. aureus Smith,0.208(0.137-0.344) mg/mouse
